Laboratory results: US20260285872A1, “COMPOUNDS AND METHODS FOR DEGRADING GSPT1” (priority 2023, published 2026)
Read-outs that look alike come from different tables or passages of the source. Each block holds one compound with its values, some of them ahead of it.

Legend:
GSPT1 [1] = target: T1, GSPT1 (Homo sapiens, UniProt P15170+Q96SW2); test: GSPT1 degradation, Western Blot, MV-4-11 cells, 0.1 μM, 4 hours; assay type: cell-based; conditions: MV4-11, % reduction of GSPT1 compared to DMSO, normalized to GAPDH, read-out: GSPT1 degradation classification
Description: Compounds of the present disclosure was added to cells (final DMSO concentration of 0.1%) and incubated for 4 hours. GSPT1 levels were determined in MV-4-11 cells using Western Blot analysis. […] Protein levels were normalized to GAPDH levels.
The efficacy of GSPT1 degradation of a part of compounds of the present disclosure was determined by treating MV-4-11 cells at 0.1 μM (final DMSO concentration of 0.1%) for 4 hours. GSPT1 levels were determined using Western Blot and normalized to GAPDH levels.

MV-4-11 cells = test: AML cell viability, CellTiter-Glo, MV-4-11 cells; assay type: cell-based; conditions: Homo sapiens, MV4-11, CellTiter-Glo, read-out: Cell viability classification
Description: MV4-11 cells were obtained from ATCC and grown in IMDM supplemented with 10% FBS. The cells were maintained at 37° C. under 5% CO2. […] The luminescence was normalized to that of DMSO-treated samples. IC50 values were obtained using three-parameter non-linear regressions using Prism (GraphPad). […] Cell viability was measured using the CellTiter-Glo reagent after 44 hours of treatment. […] MV4-11 cells were obtained from ATCC and grown in IMDM supplemented with 10% FBS. The cells were maintained at 37° C. under 5% CO2. […] Cell viability was measured using the CellTiter-Glo reagent after 44 hours of treatment.

GSPT1 [2] = target: T1, GSPT1; test: cell-based; conditions: read-out: GSPT1 degradation classification
HCC827 cells = test: NSCLC cell viability, CellTiter-Glo, HCC827 cells; assay type: cell-based; conditions: Homo sapiens, read-out: Cell viability classification
Description: (§1) HCC827 cells were obtained from Korean Cell Line Bank (KCLB) and grown in RPMI supplemented with 10% FBS. The cells were maintained at 37° C. under 5% CO2.
(§2) The efficacy of the present disclosure to reduce viability of Non-Small Cell Lung Cancer (NSCLC) cells was assessed using CellTiter-Glo Cell Viability Assay (Promega) according to the manufacturer's protocol. […] The luminescence was normalized to that of DMSO-treated samples. IC50 values were obtained using three-parameter non-linear regressions using Prism (GraphPad).
The efficacy of additional compounds of the present disclosure in reducing HCC827 cell viability was determined by treating HCC827 cells at various concentrations (final DMSO concentration of 0.1%). Cell viability was measured using the CellTiter-Glo reagent after 72 hours of treatment.

GSPT1 [3] = target: T1, GSPT1; test: GSPT1 degradation, Western Blot, HCC827 cells, 1 μM, 16 hours; assay type: cell-based; conditions: % reduction of GSPT1 compared to DMSO, normalized to GAPDH, read-out: GSPT1 degradation classification
Description: as §1
Compounds of the present disclosure was added to cells (final DMSO concentration of 0.1%) and incubated for 16 hours. GSPT1 levels were determined in HCC827 cells using Western Blot analysis. […] Protein levels were normalized to GAPDH levels.
The efficacy of GSPT1 degradation of a part of compounds of the present disclosure was determined by treating HCC827 cells at 1 μM (final DMSO concentration of 0.1%) for 16 hours. GSPT1 levels were determined using Western Blot and normalized to GAPDH levels.

GSPT1 [4] = target: T1, GSPT1; test: GSPT1 degradation, Western Blot, A549 cells, 1 μM, 16 hours; assay type: cell-based; conditions: % reduction of GSPT1 compared to DMSO, normalized to GAPDH, read-out: GSPT1 degradation classification
A549 cells = test: NSCLC cell viability, CellTiter-Glo, A549 cells; assay type: cell-based; conditions: Homo sapiens, 72 hours of treatment, read-out: Cell viability classification
Description: A549 cells were obtained from Korean Cell Line Bank (KCLB) and grown in RPMI supplemented with 10% FBS. The cells were maintained at 37° C. under 5% CO2.
as §2
The efficacy of additional compounds of the present disclosure in reducing A549 cell viability was determined by treating A549 cells at various concentrations (final DMSO concentration of 0.1%). Cell viability was measured using the CellTiter-Glo reagent after 72 hours of treatment.

[5] = TABLE 2, MV-4-11 cells assumed, 44 hours
[6] = MV-4-11 cells, 44 hours of treatment, TABLE 1
[7] = HCC827 cells, CellTiter-Glo, 72 hours of treatment

T1 sequence (P15170 whole entry): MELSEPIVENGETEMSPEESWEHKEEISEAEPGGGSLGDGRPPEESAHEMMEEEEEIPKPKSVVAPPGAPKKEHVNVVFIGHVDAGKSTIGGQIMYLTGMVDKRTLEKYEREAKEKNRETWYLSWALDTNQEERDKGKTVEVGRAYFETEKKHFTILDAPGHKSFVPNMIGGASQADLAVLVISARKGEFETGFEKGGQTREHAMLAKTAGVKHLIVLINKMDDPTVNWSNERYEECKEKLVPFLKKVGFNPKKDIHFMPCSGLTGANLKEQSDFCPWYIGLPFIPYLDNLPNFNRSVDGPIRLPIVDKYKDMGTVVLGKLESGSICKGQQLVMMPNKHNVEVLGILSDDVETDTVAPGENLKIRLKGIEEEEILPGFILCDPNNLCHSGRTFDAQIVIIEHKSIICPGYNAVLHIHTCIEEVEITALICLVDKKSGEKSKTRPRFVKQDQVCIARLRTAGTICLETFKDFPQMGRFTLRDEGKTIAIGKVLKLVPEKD
T1 sequence (Q96SW2 whole entry): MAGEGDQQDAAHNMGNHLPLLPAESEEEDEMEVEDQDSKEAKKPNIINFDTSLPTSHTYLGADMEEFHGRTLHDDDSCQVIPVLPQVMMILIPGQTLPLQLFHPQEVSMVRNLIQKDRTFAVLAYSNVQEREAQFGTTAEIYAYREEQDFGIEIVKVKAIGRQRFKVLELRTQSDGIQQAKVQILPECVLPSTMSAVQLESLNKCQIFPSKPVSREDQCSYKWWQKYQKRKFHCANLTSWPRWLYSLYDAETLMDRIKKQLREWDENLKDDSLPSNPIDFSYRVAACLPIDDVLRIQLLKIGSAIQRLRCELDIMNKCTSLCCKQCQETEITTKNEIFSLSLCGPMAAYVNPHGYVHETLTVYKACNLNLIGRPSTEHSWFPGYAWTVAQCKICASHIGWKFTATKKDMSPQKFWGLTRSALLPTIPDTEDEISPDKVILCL
T1 sequence (Q16531 whole entry partner): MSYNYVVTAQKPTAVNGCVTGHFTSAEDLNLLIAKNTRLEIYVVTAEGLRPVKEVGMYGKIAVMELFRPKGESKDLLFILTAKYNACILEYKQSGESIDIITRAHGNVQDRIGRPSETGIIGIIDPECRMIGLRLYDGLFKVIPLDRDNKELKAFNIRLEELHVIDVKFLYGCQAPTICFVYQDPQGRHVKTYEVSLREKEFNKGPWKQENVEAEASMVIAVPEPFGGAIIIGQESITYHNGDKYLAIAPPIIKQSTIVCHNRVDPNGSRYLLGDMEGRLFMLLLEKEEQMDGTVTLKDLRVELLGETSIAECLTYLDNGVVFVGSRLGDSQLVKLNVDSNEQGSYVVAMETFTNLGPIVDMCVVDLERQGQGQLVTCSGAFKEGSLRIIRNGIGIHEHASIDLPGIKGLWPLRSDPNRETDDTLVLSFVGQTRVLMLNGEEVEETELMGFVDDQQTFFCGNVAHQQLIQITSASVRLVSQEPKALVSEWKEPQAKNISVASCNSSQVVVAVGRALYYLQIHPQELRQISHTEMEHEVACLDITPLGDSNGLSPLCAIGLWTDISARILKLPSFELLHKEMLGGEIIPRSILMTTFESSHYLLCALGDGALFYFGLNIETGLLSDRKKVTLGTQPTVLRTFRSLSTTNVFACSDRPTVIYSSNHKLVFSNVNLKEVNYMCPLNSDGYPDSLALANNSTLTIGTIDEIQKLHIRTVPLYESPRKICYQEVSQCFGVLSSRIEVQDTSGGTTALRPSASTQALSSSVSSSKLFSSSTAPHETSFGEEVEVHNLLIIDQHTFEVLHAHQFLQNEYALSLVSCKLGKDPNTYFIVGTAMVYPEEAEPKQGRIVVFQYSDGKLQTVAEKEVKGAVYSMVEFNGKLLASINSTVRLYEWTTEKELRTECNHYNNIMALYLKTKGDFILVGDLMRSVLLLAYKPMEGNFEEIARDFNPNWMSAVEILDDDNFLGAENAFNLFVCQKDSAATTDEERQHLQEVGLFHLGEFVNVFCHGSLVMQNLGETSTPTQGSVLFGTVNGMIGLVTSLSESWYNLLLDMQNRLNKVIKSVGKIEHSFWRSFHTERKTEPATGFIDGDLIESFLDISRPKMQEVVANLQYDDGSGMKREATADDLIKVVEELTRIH

SMILES: O=C1CCC(N2Cc3cc(C(=O)N4CCc5c(F)ccc(F)c54)ccc3C2=O)C(=O)N1 (stereo not shown) [Example 63, 3-(5-(4,7-difluoroindoline-1-carbonyl)-1-oxoisoindolin-2-yl)piperidine-2,6-dione]
- inhibition at 0.1 µM (GSPT1 [1]): < 50%
- IC50 (MV-4-11 cells; [5]): 100 to 1000 nM

SMILES: O=C1CCC(N2Cc3cc(C(=O)N4CCc5c4ccc(F)c5F)ccc3C2=O)C(=O)N1 (stereo not shown) [Example 65, 3-(5-(4,5-difluoroindoline-1-carbonyl)-1-oxoisoindolin-2-yl)piperidine-2,6-dione]
- inhibition at 0.1 µM (GSPT1 [1]): < 50%
- IC50 (MV-4-11 cells; [5]): < 100 nM

SMILES: O=C1CCC(N2Cc3cc(C(=O)N4CCc5c4ccc(Cl)c5F)ccc3C2=O)C(=O)N1 (stereo not shown) [Example 66, 3-(5-(5-chloro-4-fluoroindoline-1-carbonyl)-1-oxoisoindolin-2-yl)piperidine-2,6-dione]
- inhibition at 0.1 µM (GSPT1 [1]): < 50%
- IC50 (MV-4-11 cells; [5]): < 100 nM

SMILES: O=C1CCC(N2Cc3cc(C(=O)Nc4csc5cccc(F)c45)ccc3C2=O)C(=O)N1 (stereo not shown) [Example 67, 2-(2,6-dioxopiperidin-3-yl)-N-(4-fluorobenzo[b]thiophen-3-yl)-1-oxoisoindoline-5-carboxamide]
- inhibition at 0.1 µM (GSPT1 [1]): 50 to 75%
- IC50 (MV-4-11 cells; [5]): < 100 nM

SMILES: O=C1CCC(N2Cc3cc(C(=O)Nc4csc5ccc(F)cc45)ccc3C2=O)C(=O)N1 (stereo not shown) [Example 68, 2-(2,6-dioxopiperidin-3-yl)-N-(5-fluorobenzo[b]thiophen-3-yl)-1-oxoisoindoline-5-carboxamide]
- inhibition at 0.1 µM (GSPT1 [1]): 50 to 75%
- IC50 (MV-4-11 cells; [5]): < 100 nM

SMILES: O=C1CCC(N2Cc3cc(C(=O)Nc4csc5cc(F)ccc45)ccc3C2=O)C(=O)N1 (stereo not shown) [Example 69, 2-(2,6-dioxopiperidin-3-yl)-N-(6-fluorobenzo[b]thiophen-3-yl)-1-oxoisoindoline-5-carboxamide]
- inhibition at 0.1 µM (GSPT1 [1]): 50 to 75%
- IC50 (MV-4-11 cells; [5]): < 100 nM

SMILES: O=C1CCC(N2Cc3cc(C(=O)Nc4csc5c(F)cccc45)ccc3C2=O)C(=O)N1 (stereo not shown) [Example 70, 2-(2,6-dioxopiperidin-3-yl)-N-(7-fluorobenzo[b]thiophen-3-yl)-1-oxoisoindoline-5-carboxamide]
- inhibition at 0.1 µM (GSPT1 [1]): < 50%
- IC50 (MV-4-11 cells; [5]): < 100 nM

SMILES: O=C1CCC(N2Cc3cc(C(=O)NC45CC(F)(C4)C5)ccc3C2=O)C(=O)N1 (stereo not shown) [Example 71, 2-(2,6-dioxopiperidin-3-yl)-N-(3-fluorobicyclo[1.1.1]pentan-1-yl)-1-oxoisoindoline-5-carboxamide]
- inhibition at 0.1 µM (GSPT1 [1]): < 50%
- IC50 (MV-4-11 cells; [5]): > 1000 nM

SMILES: O=C1CCC(N2Cc3cc(C(=O)NC45CCC(F)(CC4)CC5)ccc3C2=O)C(=O)N1 (stereo not shown) [Example 72, 2-(2,6-dioxopiperidin-3-yl)-N-(4-fluorobicyclo[2.2.2]octan-1-yl)-1-oxoisoindoline-5-carboxamide]
- inhibition at 0.1 µM (GSPT1 [1]): 50 to 75%
- IC50 (MV-4-11 cells; [5]): 100 to 1000 nM

SMILES: COc1ccc2c(c1)N(C(=O)c1ccc3c(c1)CN(C1CCC(=O)NC1=O)C3=O)CC2 (stereo not shown) [Example 84, 3-(5-(6-methoxyindoline-1-carbonyl)-1-oxoisoindolin-2-yl)piperidine-2,6-dione]
- inhibition at 1 µM (GSPT1 [2]; MV4-11, 6 h): < 50%
- IC50 (MV-4-11 cells; [6]): 100 to 1000 nM

SMILES: COc1cccc2c1N(C(=O)c1ccc3c(c1)CN(C1CCC(=O)NC1=O)C3=O)CC2 (stereo not shown) [Example 85, 3-(5-(7-methoxyindoline-1-carbonyl)-1-oxoisoindolin-2-yl)piperidine-2,6-dione]
- inhibition at 1 µM (GSPT1 [2]; MV4-11, MV-4-11 cells, 1 μM, 6 hours, Western Blot, % reduction of GSPT1 compared to DMSO, normalized to GAPDH): < 50%
- IC50 (MV-4-11 cells; [6]): 100 to 1000 nM

SMILES: O=C1CCC(N2Cc3cc(C(=O)N4CCc5c(Cl)ccc(F)c54)ccc3C2=O)C(=O)N1 (stereo not shown) [Example 86, 3-(5-(4-chloro-7-fluoroindoline-1-carbonyl)-1-oxoisoindolin-2-yl)piperidine-2,6-dione]
- IC50 (HCC827 cells; HCC827, 72 h): > 1000 nM

SMILES: O=C1CCC(N2Cc3cc(C(=O)N4Cc5cccc(F)c5C4)ccc3C2=O)C(=O)N1 (stereo not shown) [Example 87, 3-(5-(4-fluoroisoindoline-2-carbonyl)-1-oxoisoindolin-2-yl)piperidine-2,6-dione]
- IC50 (HCC827 cells; HCC827, 72 h): < 1000 nM
- inhibition at 1 µM (GSPT1 [3]): > 75%

SMILES: O=C1CCC(N2Cc3cc(C(=O)N4Cc5ccc(F)cc5C4)ccc3C2=O)C(=O)N1 (stereo not shown) [Example 88, 3-(5-(5-fluoroisoindoline-2-carbonyl)-1-oxoisoindolin-2-yl)piperidine-2,6-dione]
- IC50 (HCC827 cells; HCC827, 72 h): < 1000 nM
- inhibition at 1 µM (GSPT1 [3]): > 75%

- IC50 (HCC827 cells; [7]): > 1000 nM
SMILES: O=C1CCC(N2Cc3cc(C(=O)Nc4nsc5ccccc45)ccc3C2=O)C(=O)N1 (stereo not shown) [Example 89, N-(benzo[d]isothiazol-3-yl)-2-(2,6-dioxopiperidin-3-yl)-1-oxoisoindoline-5-carboxamide]

- IC50 (HCC827 cells; [7]): > 1000 nM
SMILES: O=C1CCC(N2Cc3cc(C(=O)Nc4cscn4)ccc3C2=O)C(=O)N1 (stereo not shown) [Example 90, 2-(2,6-dioxopiperidin-3-yl)-1-oxo-N-(thiazol-4-yl)isoindoline-5-carboxamide]

- inhibition at 1 µM (GSPT1 [4]): > 75%
- IC50 (A549 cells): < 1000 nM
SMILES: O=C1CCC(N2Cc3cc(C(=O)Nc4csc5ccccc45)c(F)cc3C2=O)C(=O)N1 (stereo not shown) [Example 91, N-(benzo[b]thiophen-3-yl)-2-(2,6-dioxopiperidin-3-yl)-6-fluoro-1-oxoisoindoline-5-carboxamide]

SMILES: O=C1CCC(N2Cc3cc(C(=O)N4CCc5c(F)cc(F)cc54)ccc3C2=O)C(=O)N1 (stereo not shown) [Example 92, 3-(5-(4,6-difluoroindoline-1-carbonyl)-1-oxoisoindolin-2-yl)piperidine-2,6-dione]
- IC50 (A549 cells): < 1000 nM

SMILES: O=C1CCC(N2Cc3cc(C(=O)Nc4ccccc4)ccc3C2=O)C(=O)N1 (stereo not shown) [Example 93, 2-(2,6-dioxopiperidin-3-yl)-1-oxo-N-phenylisoindoline-5-carboxamide]
- IC50 (A549 cells): 1000 to 30000 nM

- IC50 (A549 cells): > 1000 nM
SMILES: O=C1CCC(N2Cc3cc(C(=O)Nc4ccccc4F)ccc3C2=O)C(=O)N1 (stereo not shown) [Example 94, 2-(2,6-dioxopiperidin-3-yl)-N-(2-fluorophenyl)-1-oxoisoindoline-5-carboxamide]

SMILES: O=C1CCC(N2Cc3cc(C(=O)Nc4cccc5cccnc45)ccc3C2=O)C(=O)N1 (stereo not shown) [Example 95, 2-(2,6-dioxopiperidin-3-yl)-1-oxo-N-(quinolin-8-yl)isoindoline-5-carboxamide]
- IC50 (A549 cells): > 1000 nM

SMILES: O=C1CCC(N2Cc3cc(C(=O)NC4CCCCC4)ccc3C2=O)C(=O)N1 (stereo not shown) [Example 96, N-cyclohexyl-2-(2,6-dioxopiperidin-3-yl)-1-oxoisoindoline-5-carboxamide]
- inhibition at 1 µM (GSPT1 [4]): 50 to 75%
- IC50 (A549 cells): 1000 to 30000 nM
